Data taken from PMC6941952, “A homogeneous bioluminescent immunoassay to probe cellular signaling pathway regulation” (Communications Biology, 2020).
“And” between values parts separate entries of the source, which are not always exact repeats. Equal entries are not always repeated.

Test system: phospho-IκBα (Ser32)
Experiment: NanoBiT cell-based immunoassay, phosphorylated IκBα in MCF-7 cells
Parameters: species or system human
Details: for Fold change (TNF-treated /Non-treated): P-IkB; for P-IkB Average / Average: background subtracted
Experimental: Prior to NanoBiT Cell-Based Immunoassay, 50,000 cells were seeded in 160 µl of complete growth media per well of a 96-well plate and incubated overnight. The cells were checked under microscope and it was determined that 50,000 cells per well in 96-well plate is under 90% confluency for all cells tested. If necessary, the cell culture media were replaced with serum-free media after the cells were stably adherent on the plate and incubated overnight. To treat cells with activators or inhibitors, medium was changed to 30 µl of medium containing inhibitors. If activation of a specific pathway is needed, the cells were stimulated with 10 µl of medium containing activators. To lyse the cells, 10 µl of lysis buffer containing 0.1% digitonin diluted in 1X immunoassay buffer with protease and phosphatase inhibitors was added and the plates were mixed vigorously for 20 min. Then, 50 µl of an antibody mix containing two primary antibodies against the target protein and NanoBiT detecting antibodies (0.3 µl each per well), diluted in 1X immunoassay buffer was added to the lysates. The plates were incubated at 23 °C for 90 min, followed by the addition of 25 µl of Nano-Glo® reagent consisting of Nano-Glo® Luciferase Assay Substrate mixed with 1X immunoassay buffer. Luminescence was measured using a plate-reading luminometer.
In all, 50,000 MCF-7 cells were seeded in 160 µl complete growth medium per well of a 96-well plate and incubated overnight. Half of the cells were treated with 50 ng per ml TNFα and half with vehicle. Cells were lysed as described above and a mixture of NanoBiT secondary antibodies with primary antibodies at the matrix concentrations described in Fig. 2a were added. After 90 min incubation, the Nano-Glo® reagent was added to the reactions as described above and luminescence was measured using a plate-reading luminometer.
Single dose or dose response inhibitor treatments were performed prior to activation of the pathways as follows. For IκBα, the cells were treated in 30 µl medium with IKK16 or MG132 for 60 min before the addition of 10 µl of DMEM containing appropriate concentration of TNFα. To measure phosphorylation of AKT or STAT3, the corresponding NanoBiT immunoassays were developed with MCF-7 or A431 cells, respectively, according the same scheme used to develop the IκBα assay using the primary antibodies for AKT and STAT3 described in the reagents section. For the AKT assay, MCF-7 cells were incubated overnight in phenol-red free DMEM medium (Gibco #21063-029) without serum. Treatment with LY294002 was performed in 30 µl medium and cells were incubated for 60 min before the addition of 1 µM Insulin. To measure STAT3 phosphorylation, A431 cells were incubated overnight in DMEM medium without serum. […] After addition of the stimulators, the cells were incubated for additional times as follows. IκBα phosphorylation and degradation analyses required both time courses and single time points as described in figures. […] The NanoBiT immunoassay protocol was followed as described above.
All 96-well assay plates were read using a GloMax® 96 Microplate Luminometer from Promega. The instrument was set to 0.5 s integration time. In order to obtain net change of signal, the reagent background values (signal from the well containing all reagent except primary antibodies) were subtracted from the sample values. To plot and analyze the data, Microsoft Excel and GraphPad Prism® Software were used. IC50 values were determined by using a nonlinear regression fit to a sigmoidal dose response (variable slope).

[1] = Figure 2b, Ab incubation 5 min, listed as TNF
[2] = Figure 2b, Ab incubation 10 min, listed as TNF
[3] = Figure 2b, Ab incubation 60 min, listed as TNF
[4] = Figure 2b, Ab incubation 90 min, listed as TNF
[5] = Figure 2b, Ab incubation 120 min, listed as TNF
[6] = Figure 2b, Ab incubation 10 min
[7] = Figure 2b, Ab incubation 30 min
[8] = Figure 2b, Ab incubation 60 min
[9] = Figure 2b, Ab incubation 90 min
[10] = Figure 2b, Ab incubation 120 min
[11] = Figure 2c, Cell # 3500, listed as TNF
[12] = Figure 2c, Cell # 7000, listed as TNF
[13] = Figure 2c, Cell # 14000, listed as TNF
[14] = Figure 2c, Cell # 21000, listed as TNF
[15] = Figure 2c, Cell # 28000, listed as TNF
[16] = Figure 2c, Cell # 35000, listed as TNF
[17] = Figure 2c, Cell # 42000, listed as TNF
[18] = Figure 2c, Cell # 49000, listed as TNF
[19] = Figure 2c, Cell # 56000, listed as TNF
[20] = Figure 2c, Cell # 63000, listed as TNF
[21] = Figure 3a and 3b, listed as TNF
[22] = No MG132, TNF 2 min, listed as TNF
[23] = No MG132, TNF 4 min, listed as TNF
[24] = No MG132, TNF 10 min, listed as TNF
[25] = No MG132, TNF 12 min, listed as TNF
[26] = No MG132, TNF 15 min, listed as TNF
[27] = No MG132, TNF 30 min, listed as TNF
[28] = plate #1, IkB Ab #1 75 ng/ml, P-IkB Ab #1 75 ng/ml, TNF

TNFα
P-IkB Raw data [1]: 13050
P-IkB Subtract reagent background [1]: 1653 and 2223 and 1733
P-IkB Raw data [2]: 15430
P-IkB Subtract reagent background [2]: 4075 and 4145 and 2725
P-IkB Subtract reagent background (Figure 2b, Ab incubation 30 min, listed as TNF): 11622 and 12702 and 12152
P-IkB Raw data [3]: 35930
P-IkB Subtract reagent background [3]: 23000 and 23900 and 26790
P-IkB Raw data [4]: 44160
P-IkB Subtract reagent background [4]: 32005 and 32085 and 32105
P-IkB Raw data [5]: 26480
P-IkB Subtract reagent background [5]: 19503 and 18993 and 21543
Fold change (TNF-treated /Non-treated) (Figure 2b, Ab incubation 5 min): -51
Fold change (TNF-treated /Non-treated) [6]: 25
Fold change (TNF-treated /Non-treated) [7]: 10
Fold change (TNF-treated /Non-treated) [8]: 14
Fold change (TNF-treated /Non-treated) [9]: 13
Fold change (TNF-treated /Non-treated) [10]: 12
P-IkB Average (Figure 2b, Ab incubation 5 min): 1870
P-IkB Average [6]: 3648
P-IkB Average [7]: 12158
P-IkB Average [8]: 24563
P-IkB Average [9]: 32065
P-IkB Average [10]: 20013
Raw data [11]: 19860 and 20790
Subtract background [11]: 6010 and 6150
Raw data [12]: 22450 and 23090
Subtract background [12]: 8600 and 8450
Raw data [13]: 26500 and 26620
Subtract background [13]: 12650 and 11980
Raw data [14]: 26350 and 27260
Subtract background [14]: 12500 and 12620
Raw data [15]: 29180 and 29230
Subtract background [15]: 15330 and 14590
Raw data [16]: 32490 and 30000
Subtract background [16]: 18640 and 15360
Raw data [17]: 35680 and 35010
Subtract background [17]: 21830 and 20370
Raw data [18]: 36150 and 38410
Subtract background [18]: 22300 and 23770
Raw data [19]: 38800 and 38570
Subtract background [19]: 24950 and 23930
Raw data [20]: 40840 and 40330
Subtract background [20]: 26990 and 25690
Average (Figure 2c, Cell # 3500): 6080
Average (Figure 2c, Cell # 7000): 8525
Average (Figure 2c, Cell # 14000): 12315
Average (Figure 2c, Cell # 21000): 12560
Average (Figure 2c, Cell # 28000): 14960
Average (Figure 2c, Cell # 35000): 17000
Average (Figure 2c, Cell # 42000): 21100
Average (Figure 2c, Cell # 49000): 23035
Average (Figure 2c, Cell # 56000): 24440
Average (Figure 2c, Cell # 63000): 26340
P-IkB Average (Figure 3a and 3b): 18603
P-IkB Raw data [21]: 40970 and 39480 and 37340
P-IkB Subtract reagent background [21]: 20310 and 18820 and 16680
P-IkB Average (No MG132, TNF 2 min): 1340
P-IkB Raw data [22]: 17500 and 17960 and 17760 and 18420
P-IkB Subtract reagent background [22]: 930 and 1390 and 1190 and 1850
P-IkB Average (No MG132, TNF 4 min): 2908
P-IkB Raw data [23]: 18550 and 18960 and 19930 and 20470
P-IkB Subtract reagent background [23]: 1980 and 2390 and 3360 and 3900
P-IkB Average (No MG132, TNF 6 min): 9185
P-IkB Raw data (No MG132, TNF 6 min, listed as TNF): 21700 and 24830 and 27800 and 28690
P-IkB Average (No MG132, TNF 8 min): 17540
P-IkB Raw data (No MG132, TNF 8 min, listed as TNF): 27040 and 33390 and 37550 and 38460
P-IkB Average (No MG132, TNF 10 min): 21585
P-IkB Raw data [24]: 32290 and 37160 and 40510 and 42660
P-IkB Subtract reagent background [24]: 15720 and 20590 and 23940 and 26090
P-IkB Average (No MG132, TNF 12 min): 19345
P-IkB Raw data [25]: 33820 and 35920 and 37120 and 36800
P-IkB Subtract reagent background [25]: 17250 and 19350 and 20550 and 20230
P-IkB Average (No MG132, TNF 15 min): 13560
P-IkB Raw data [26]: 29860 and 30140 and 30400 and 30120
P-IkB Subtract reagent background [26]: 13290 and 13570 and 13830 and 13550
P-IkB Average (No MG132, TNF 30 min): 3855
P-IkB Raw data [27]: 20170 and 19970 and 20370 and 21190
P-IkB Subtract reagent background [27]: 3600 and 3400 and 3800 and 4620
Raw data [28]: 32920
Subtract reagent background [28]: 14010
